# Test system: Phakopsora pachyrhizi
# Assay: Test A: preventive spray on soybean seedlings, Asian soybean rust, visual disease rating
# Assay type: in vivo
# Conditions: rate 10 ppm
# Text: General protocol for preparing test suspensions for Test A: the test compounds were first dissolved in acetone in an amount equal to 3% of the final volume and then suspended at the desired concentration (in ppm) in acetone and purified water (50/50 mix by volume) containing 250 ppm of the surfactant PEG400 (polyhydric alcohol esters). The resulting test suspensions were then used in Test A.
# The test solution was sprayed to the point of run-off on soybean seedlings. The following day the seedlings were inoculated with a spore suspension of Phakopsora pachyrhizi (the causal agent of Asian soybean rust) and incubated in a saturated atmosphere at 22° C. for 24 h and then moved to a growth chamber at 22° C. for 8 days, after which time visual disease ratings were made.
# A rating of 100 indicates 100% disease control and a rating of 0 indicates no disease control (relative to the controls).
row,Compound,"Test A rating (100 = 100% disease control, 0 = no disease control relative to the controls)"
1,C=CCON(CC)C(=O)c1cnn(Cc2ccc(O/C=C(\OCC)C(F)(F)F)cc2)c1 [compound 41],94%
2,C=CCON=C(OCCCC)c1cnn(Cc2ccc(O/C=C(\OCC)C(F)(F)F)cc2)c1 [compound 42],96%
3,C=CCON(CCCC)C(=O)c1cnn(Cc2ccc(O/C=C(\OCC)C(F)(F)F)cc2)c1 [compound 43],87%
4,C#CCC(=O)OCc1cnn(Cc2ccc(O/C=C(\OCC)C(F)(F)F)cc2)c1 [compound 44],100%
5,CCO/C(=C\Oc1ccc(Cn2cc(COC(=O)CC(C)(C)C)cn2)cc1)C(F)(F)F [compound 49],99%
6,CCO/C(=C\Oc1ccc(Cn2cc(COC(=O)C3CC3)cn2)cc1)C(F)(F)F [compound 51],100%
7,CCOC(=O)OCc1cnn(Cc2ccc(O/C=C(\OCC)C(F)(F)F)cc2)c1 [compound 53],100%
8,CCO/C(=C\Oc1ccc(Cn2cc(C(N)=NO)cn2)cc1)C(F)(F)F [compound 56],84%
9,CCO/C(=C\Oc1ccc(Cn2cc(COCC3(C)CC3)cn2)cc1)C(F)(F)F [compound 57],100%
10,CCO/C(=C\Oc1ccc(Cn2cc(COC3CCC3)cn2)cc1)C(F)(F)F [compound 59],100%
11,C=CCONC(=O)c1cnn(CCCc2ccc(O/C=C(\OCC)C(F)(F)F)cc2)c1 [compound 60],96%
12,C=CCON=C(OCC)c1cnn(CCc2ccc(O/C=C(\OCC)C(F)(F)F)cc2)c1 [compound 61],100%
13,C=CCONC(=O)c1cnn(CCc2ccc(O/C=C(\OCC)C(F)(F)F)cc2)c1 [compound 62],100%
14,CCO/C(=C\Oc1ccc(Cn2cc(COCC3CCCC3)cn2)cc1)C(F)(F)F [compound 63],100%
15,CCO/C(=C\Oc1ccc(Cn2cc(COCC3CC3)cn2)cc1)C(F)(F)F [compound 64],100%
16,C#CCOCc1cnn(Cc2ccc(O/C=C(\OCC)C(F)(F)F)cc2)c1 [compound 65],100%
17,C=CCOCc1cnn(Cc2ccc(O/C=C(\OCC)C(F)(F)F)cc2)c1 [compound 66],100%
18,CCO/C(=C\Oc1ccc(Cn2cc(C(=O)NOCCO)cn2)cc1)C(F)(F)F [compound 67],100%
19,CCO/C(=C\Oc1ccc(Cn2cccc(C(=O)NOCC#N)c2=O)cc1)C(F)(F)F [compound 98],99%
20,C#CCON(C)C(=O)c1cccn(Cc2ccc(O/C=C(\OCC)C(F)(F)F)cc2)c1=O [compound 99],92%
21,C#CCONC(=O)c1cccn(Cc2ccc(O/C=C(\OCC)C(F)(F)F)cc2)c1=O [compound 100],98%
22,CCO/C(=C\Oc1ccc(Cn2cccc(C(=O)N(C)OCCOC)c2=O)cc1)C(F)(F)F [compound 101],94%
23,CCO/C(=C\Oc1ccc(Cn2cccc(C(=O)N(C)OCC3CC3)c2=O)cc1)C(F)(F)F [compound 102],99%
24,CCO/C(=C\Oc1ccc(Cn2cccc(C(=O)NOCCOC)c2=O)cc1)C(F)(F)F [compound 103],97%
25,CCO/C(=C\Oc1ccc(Cn2cccc(C(=O)NOCC3CC3)c2=O)cc1)C(F)(F)F [compound 104],100%

# Same assay, conditions: rate 10 ppm, read-out: Test A rating (100 = 100% disease control, 0 = no disease control relative to the controls)
row,Compound,pest or weed control at 10 ppm
1,C=CCO/N=C(/OCC)c1ccn(Cc2ccc(O/C=C(\OCC)C(F)(F)F)cc2)n1 [compound 110],99%
2,C=CCONC(=O)c1ccn(Cc2ccc(O/C=C(\OCC)C(F)(F)F)cc2)n1 [compound 111],100%
3,CCO/C(=C\Oc1ccc(Cc2nc(C(=O)NOCCOC)cs2)cc1)C(F)(F)F [compound 112],100%
4,C=CCO/N=C(/OCC)c1cnn(Cc2cccc(O/C=C(\OCC)C(F)(F)F)c2)c1 [compound 113],87%
5,C=CCONC(=O)c1cnn(Cc2cccc(O/C=C(\OCC)C(F)(F)F)c2)c1 [compound 114],100%
6,C=CCONC(=O)c1ccn(Cc2ccc(O/C=C(\OCC)C(F)(F)F)cc2)c1 [compound 115],96%
7,CCO/C(=C\Oc1ccc(Cc2nc(C(=O)NOCC3CC3)cs2)cc1)C(F)(F)F [compound 116],100%
8,C=CCONC(=O)c1csc(Cc2ccc(O/C=C(\OCC)C(F)(F)F)cc2)n1 [compound 117],100%
9,C=CCO/N=C(\OCC)c1cc(Cc2ccc(O/C=C(\OCC)C(F)(F)F)cc2)ccn1 [compound 118],100%
10,CCO/C(=C\Oc1ccc(Cc2cccc(C(=O)N(C)OCc3ccccc3)n2)cc1)C(F)(F)F [compound 122],100%
11,CCO/C(=C\Oc1ccc(Cc2cccc(C(=O)NOCc3ccccc3)n2)cc1)C(F)(F)F [compound 126],99%
12,C=CCONC(=O)c1cc(Cc2ccc(OCC3(C(F)(F)F)OCCO3)cc2)ccn1 [compound 129],98%
13,C=CCON(C)C(=O)c1cc(Cc2ccc(OCC3(C(F)(F)F)OCCO3)cc2)ccn1 [compound 130],99%
14,C#CCO/N=C(\OC)c1cccc(Cc2ccc(O/C=C(\OCC)C(F)(F)F)cc2)n1 [compound 134],99%
15,C=CCON(C)C(=O)c1cc(Cc2ccc(O/C=C(\OCC)C(F)(F)F)cc2)ccn1 [compound 135],100%

# Same assay, conditions: rate 250 ppm, read-out: Test A rating (100 = 100% disease control, 0 = no disease control relative to the controls)
row,Compound,pest or weed control at 250 ppm
1,C=CCON(CC)C(=O)c1cccc(Cc2ccc(O/C=C(\OCC)C(F)(F)F)cc2)c1 [compound 128],100%

# From patent publication US20250089717A1, “FUNGICIDAL HALOMETHYL KETONES, HYDRATES AND ENOL ETHERS AND THEIR MIXTURES” (FMC CORPORATION, priority 2023, published 2025)
